Experimental data as given in patent US10233191B2, “Fused piperidine amides as modulators of ion channels” (Vertex Pharmaceuticals Incorporated, priority 2013, dated 2019).

What follows are compounds tested against T1, NaV 1.7 (Homo sapiens, UniProt Q15858) (assay: E-VIPR optical membrane potential assay with electrical stimulation). Conditions: active against one or more sodium channels; assay/subtype not specified in Table 4; read-out: IC50 Binned Activity Data.
T1 construct: expressed in transfected cells; host or cells: HEK cells
T1 sequence (Q15858 whole entry): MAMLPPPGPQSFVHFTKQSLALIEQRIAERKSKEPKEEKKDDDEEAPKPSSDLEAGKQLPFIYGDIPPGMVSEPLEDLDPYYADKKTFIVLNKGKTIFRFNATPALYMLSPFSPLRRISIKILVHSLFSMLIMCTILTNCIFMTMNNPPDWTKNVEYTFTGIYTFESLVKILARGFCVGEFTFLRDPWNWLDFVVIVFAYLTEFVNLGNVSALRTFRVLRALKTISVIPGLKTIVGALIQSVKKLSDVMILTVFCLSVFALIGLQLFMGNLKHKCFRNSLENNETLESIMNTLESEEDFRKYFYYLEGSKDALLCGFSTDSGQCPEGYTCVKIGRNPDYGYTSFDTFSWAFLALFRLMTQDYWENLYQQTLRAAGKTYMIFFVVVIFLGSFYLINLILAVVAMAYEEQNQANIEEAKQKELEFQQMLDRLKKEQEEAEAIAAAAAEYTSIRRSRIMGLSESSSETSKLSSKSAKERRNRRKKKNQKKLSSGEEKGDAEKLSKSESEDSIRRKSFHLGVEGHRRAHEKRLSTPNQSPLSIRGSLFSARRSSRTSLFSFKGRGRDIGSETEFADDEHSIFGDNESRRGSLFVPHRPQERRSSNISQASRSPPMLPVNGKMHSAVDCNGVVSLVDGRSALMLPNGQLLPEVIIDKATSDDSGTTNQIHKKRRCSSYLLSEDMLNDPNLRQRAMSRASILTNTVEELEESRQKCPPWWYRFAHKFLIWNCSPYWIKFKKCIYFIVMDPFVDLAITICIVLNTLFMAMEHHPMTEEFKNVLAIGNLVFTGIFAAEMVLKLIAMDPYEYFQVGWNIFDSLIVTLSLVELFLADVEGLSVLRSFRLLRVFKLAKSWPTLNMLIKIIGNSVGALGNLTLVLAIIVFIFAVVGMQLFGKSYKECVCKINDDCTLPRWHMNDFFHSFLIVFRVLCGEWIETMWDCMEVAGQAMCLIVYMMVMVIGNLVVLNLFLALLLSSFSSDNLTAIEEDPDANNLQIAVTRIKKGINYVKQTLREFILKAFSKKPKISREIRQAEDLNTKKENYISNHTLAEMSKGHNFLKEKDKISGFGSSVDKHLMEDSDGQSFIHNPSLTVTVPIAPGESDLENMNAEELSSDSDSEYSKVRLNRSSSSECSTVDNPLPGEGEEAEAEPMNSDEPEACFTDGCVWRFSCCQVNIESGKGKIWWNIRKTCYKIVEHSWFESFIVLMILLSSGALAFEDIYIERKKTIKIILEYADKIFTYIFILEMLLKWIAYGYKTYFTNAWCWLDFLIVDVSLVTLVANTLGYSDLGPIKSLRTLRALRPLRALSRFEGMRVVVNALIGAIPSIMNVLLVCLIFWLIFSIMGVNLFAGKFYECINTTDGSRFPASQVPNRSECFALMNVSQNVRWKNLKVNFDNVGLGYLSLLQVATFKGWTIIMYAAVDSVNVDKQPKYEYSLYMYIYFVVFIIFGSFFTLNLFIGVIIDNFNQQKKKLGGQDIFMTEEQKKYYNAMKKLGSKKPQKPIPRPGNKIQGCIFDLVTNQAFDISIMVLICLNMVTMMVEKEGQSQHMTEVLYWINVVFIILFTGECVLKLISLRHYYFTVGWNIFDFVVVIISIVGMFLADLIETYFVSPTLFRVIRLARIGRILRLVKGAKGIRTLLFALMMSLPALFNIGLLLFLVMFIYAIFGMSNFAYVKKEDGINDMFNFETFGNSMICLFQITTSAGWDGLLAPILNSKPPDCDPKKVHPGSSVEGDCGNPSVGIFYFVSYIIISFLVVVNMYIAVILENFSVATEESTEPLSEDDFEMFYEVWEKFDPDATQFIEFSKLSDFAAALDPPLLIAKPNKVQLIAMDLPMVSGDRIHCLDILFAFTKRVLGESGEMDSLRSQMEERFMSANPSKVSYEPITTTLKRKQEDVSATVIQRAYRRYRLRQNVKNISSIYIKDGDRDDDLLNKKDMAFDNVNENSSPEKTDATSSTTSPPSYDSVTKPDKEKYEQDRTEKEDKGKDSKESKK
Assay type: cell-based
Method in brief: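 HEK cells expressing human NaV1.7, loaded with CC2-DMPE/DiSBAC6(3) FRET dyes, then exposed to compounds for 20-35 min at room temperature (0.625% DMSO). Electrical stimulation applied for 9 s with 400 Hz scanning. Read-out is the background-subtracted 460/580 nm emission ratio, normalized.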

| IC50 [µM] | SMILES |
| --- | --- |
| ≤ 2 | COc1nc(C(=O)N2CC[C@]3(c4cccc(F)c4)OCOC3C2)ccc1OCCOC(F)(F)F (stereo partly drawn) [Compound 188] |
| ≤ 2 | [2H]C1([2H])OC2CN(C(=O)c3ccc(OCCOC(F)(F)F)c(OC)n3)CC[C@]2(c2cccc(F)c2)O1 (stereo partly drawn) [Compound 189] |
| ≤ 2 | COc1cccc([C@]23CCN(C(=O)c4ccc(OCCOC(F)(F)F)c(C)c4)CC2OCO3)n1 (stereo partly drawn) [Compound 190] |
| ≤ 2 | Cc1nc(C(=O)N2CCC3(c4ccccc4)CC3C2)ccc1OCCOC(F)(F)F (stereo not drawn) [Compound 191] |
| ≤ 2 | COc1cccc([C@]23CCN(C(=O)c4ccc(OCCOC(F)(F)F)c(OC)c4)CC2OCO3)n1 (stereo partly drawn) [Compound 192] |
| ≤ 2 | COc1cc(C(=O)N2CC[C@]3(c4cccc(F)c4)OCOC3C2)ccc1OCC1CC(F)(F)C1 (stereo partly drawn) [Compound 193] |
| ≤ 2 | Cc1cccc([C@]23CCN(C(=O)c4ccc(OCCOC(F)(F)F)c(C)c4)CC2OCO3)n1 (stereo partly drawn) [Compound 194] |
| ≤ 2 | COc1cc(C(=O)N2CCC3(c4ccccc4)CC3C2)ccc1OCCOC(F)(F)F (stereo not drawn) [Compound 195] |
| ≤ 2 | COc1nc(C(=O)N2CC[C@]3(c4cccc(F)c4)OCOC3C2)ccc1OCC1C2CC(F)(F)CC12 (stereo partly drawn) [Compound 196] |
| ≤ 2 | COc1cc(C(=O)N2CC[C@]3(c4cc(C(F)(F)F)ccn4)OCOC3C2)ccc1OCC(F)(F)C(F)F (stereo partly drawn) [Compound 197] |
| ≤ 2 | COc1cc(C(=O)N2CC[C@]3(c4cc(C(F)(F)F)ccn4)OCOC3C2)ccc1OCC1(C(F)(F)F)CC1 (stereo partly drawn) [Compound 198] |
| ≤ 2 | COc1cc(C(=O)N2CC[C@]3(c4cccc(F)c4)OCOC3C2)ccc1N(C)CC1CC(F)(F)C1 (stereo partly drawn) [Compound 199] |
| ≤ 2 | COc1nc(C(=O)N2CC[C@]3(c4cccc(F)c4)OCOC3C2)ccc1OCCC1CC(F)(F)C1 (stereo partly drawn) [Compound 200] |
| ≤ 2 | O=C(c1ccc(OCCOC(F)(F)F)c(Cl)c1)N1CC[C@]2(c3ccccn3)COC2C1 (stereo partly drawn) [Compound 201] |
| ≤ 2 | O=C(c1ccc(OCCOC(F)(F)F)c(Cl)c1)N1CC[C@@]2(c3ccccn3)COC2C1 (stereo partly drawn) [Compound 202] |
| ≤ 2 | COc1ccnc([C@]23CCN(C(=O)c4ccc(OCC5CC(F)(F)C5)c(OC)c4)CC2OCO3)c1 (stereo partly drawn) [Compound 203] |
| ≤ 2 | COc1cc(C(=O)N2CC[C@]3(c4cc(C(F)(F)F)ccn4)OCOC3C2)ccc1OCC1CCC(F)(F)C1 (stereo partly drawn) [Compound 204] |
| > 5 | CC(C)(F)COc1ccc(C(=O)N2CC[C@@]3(c4ccccn4)CO[C@H]3C2)cc1C(F)(F)F [Compound 205] |
| ≤ 2 | Cc1cc(C(=O)N2CC[C@@]3(c4ccccn4)COC3C2)ccc1OCCOC(F)(F)F (stereo partly drawn) [Compound 206] |
| ≤ 2 | O=C(c1ccc(OCC2(C(F)(F)F)CC2)c(Cl)c1)N1CC[C@]2(c3ccccn3)COC2C1 (stereo partly drawn) [Compound 207] |
| ≤ 2 | O=C(c1ccc(OCC2CC(F)(F)C2)c(Cl)c1)N1CC[C@@]2(c3ccccn3)COC2C1 (stereo partly drawn) [Compound 208] |
| ≤ 2 | COc1nc(C(=O)N2CC[C@@]3(c4ccccn4)COC3C2)ccc1OCC(F)(F)C(F)F (stereo partly drawn) [Compound 209] |

| IC50 [µM] | SMILES |
| --- | --- |
| 2 to 5 | COc1cc(C(=O)N2CC[C@@]3(c4ccccn4)COC3C2)ccc1OCC1CC(F)(F)C1 (stereo partly drawn) [Compound 210] |
| ≤ 2 | COc1cc(C(=O)N2CC[C@]3(c4cccc(F)c4)OCOC3C2)ccc1NCC1CC(F)(F)C1 (stereo partly drawn) [Compound 211] |
| 2 to 5 | COc1cc(C(=O)N2CC[C@@]3(c4cccc(F)c4)OCOC3C2)ccc1OC(C)C(F)(F)F (stereo partly drawn) [Compound 212] |
| ≤ 2 | COc1nc(C(=O)N2CC[C@@]3(c4cccc(F)c4)OCOC3C2)ccc1OCC1(C(F)(F)F)CC1 (stereo partly drawn) [Compound 213] |
| ≤ 2 | COc1cc(C(=O)N2CC[C@@]3(c4cccc(F)c4)OCOC3C2)ccc1OCCOC(F)(F)F (stereo partly drawn) [Compound 214] |
| ≤ 2 | COc1cc(C(=O)N2CC[C@@]3(c4cccc(F)c4)OCOC3C2)ccc1OCC1CC(F)(F)C1 (stereo partly drawn) [Compound 215] |
| ≤ 2 | O=C(c1ccc(OCCOC(F)(F)F)c(Cl)c1)N1CC[C@@]2(c3cccc(F)c3)OCOC2C1 (stereo partly drawn) [Compound 216] |
| 2 to 5 | CC(C)(F)COc1ccc(C(=O)N2CC[C@@]3(c4cccc(F)c4)OCOC3C2)cc1Cl (stereo partly drawn) [Compound 217] |
| ≤ 2 | O=C(c1ccc(OCCC(F)(F)F)c(C(F)(F)F)c1)N1CC[C@@]2(c3cccc(F)c3)OCOC2C1 (stereo partly drawn) [Compound 218] |
| > 5 | CC(C)(F)COc1ccc(C(=O)N2CC[C@@]3(c4cccc(F)c4)OCOC3C2)cc1C(F)(F)F (stereo partly drawn) [Compound 219] |
| 2 to 5 | O=C(c1ccc(OCCOC(F)(F)F)c(F)c1)N1CC[C@@]2(c3cccc(F)c3)OCOC2C1 (stereo partly drawn) [Compound 220] |
| ≤ 2 | COc1cc(Cl)nc([C@]23CCN(C(=O)c4ccc(OCCOC(F)(F)F)c(OC)c4)CC2OCO3)c1 (stereo partly drawn) [Compound 221] |
| ≤ 2 | COc1cc(C(=O)N2CC[C@]3(c4cc(C(F)(F)F)ccn4)OCOC3C2)ccc1OCCC1CC1(F)F (stereo partly drawn) [Compound 222] |
| ≤ 2 | COc1nc(C(=O)N2CC[C@]3(c4cccc(F)c4)OCOC3C2)ccc1OCC1CC2(C1)CC(F)(F)C2 (stereo partly drawn) [Compound 223] |
| ≤ 2 | COc1nc(C(=O)N2CC[C@]3(c4cccc(F)c4)OCOC3C2)ccc1OC(C)C1CC(F)(F)C1 (stereo partly drawn) [Compound 224] |
| ≤ 2 | COc1cc(C(=O)N2CC[C@]3(c4cc(F)cc(F)c4)OCOC3C2)ccc1OCC1CC(F)(F)C1 (stereo partly drawn) [Compound 225] |
| ≤ 2 | COc1cc(C(=O)N2CC[C@]3(c4cc(C(F)(F)F)ccn4)OCOC3C2)ccc1OCC1CC(F)(F)C1 (stereo partly drawn) [Compound 226] |
| ≤ 2 | COc1nc(C(=O)N2CC[C@]3(c4cccc(F)c4)OCOC3C2)ccc1OCC(F)(F)C1CC1 (stereo partly drawn) [Compound 227] |
| ≤ 2 | COc1cc(C(=O)N2CC[C@]3(c4cccc(F)c4)OCOC3C2)ccc1OCCOC(F)(F)F (stereo partly drawn) [Compound 228] |
| ≤ 2 | COc1nc(C(=O)N2CC[C@]3(c4cccc(F)c4)OCOC3C2)ccc1O[C@H]1CC2[C@H](C1)C2(F)F (stereo partly drawn) [Compound 229] |
| ≤ 2 | COc1nc(C(=O)N2CC[C@]3(c4cccc(F)c4)OCOC3C2)ccc1O[C@@H]1CC2[C@H](C1)C2(F)F (stereo partly drawn) [Compound 230] |
| ≤ 2 | COc1nc(C(=O)N2CC[C@]3(c4cccc(F)c4)OCOC3C2)ccc1OC1CC=CC1 (stereo partly drawn) [Compound 231] |

| IC50 [µM] | SMILES |
| --- | --- |
| ≤ 2 | COc1nc(C(=O)N2CC[C@]3(c4cccc(F)c4)OCOC3C2)ccc1OCC1CC=CC1 (stereo partly drawn) [Compound 232] |
| ≤ 2 | COc1nc(C(=O)N2CC[C@]3(c4cccc(F)c4)OCOC3C2)ccc1OC1CC(F)(F)C1 (stereo partly drawn) [Compound 233] |
| ≤ 2 | COc1nc(C(=O)N2CC[C@]3(c4cccc(F)c4)OCOC3C2)ccc1OC(C)C(F)(F)C(F)F (stereo partly drawn) [Compound 234] |
| ≤ 2 | COc1nc(C(=O)N2CC[C@]3(c4cccc(F)c4)OCOC3C2)ccc1OCC1CCC(F)(F)C1 (stereo partly drawn) [Compound 235] |
| ≤ 2 | COc1nc(C(=O)N2CC[C@]3(c4cccc(F)c4)OCOC3C2)ccc1OCC1CC2C(C1)C2(F)F (stereo partly drawn) [Compound 236] |
| ≤ 2 | COc1nc(C(=O)N2CC[C@]3(c4cccc(F)c4)OCOC3C2)ccc1OCC1CC2C(C1)C2(F)F (stereo partly drawn) [Compound 237] |
| ≤ 2 | O=C(c1ccc(OCCOC(F)(F)F)c(Cl)c1)N1CCC2(c3ccccn3)CC2C1 (stereo not drawn) [Compound 238] |
| ≤ 2 | COc1cc(C(=O)N2CC[C@]3(c4cccc(F)c4)OCOC3C2)ccc1OC(C)C(F)(F)C(F)F (stereo partly drawn) [Compound 239] |
| ≤ 2 | COc1cc(C(=O)N2CC[C@]3(c4cccc(F)c4)OCOC3C2)ccc1OCC1CC(F)C1 (stereo partly drawn) [Compound 240] |
| 2 to 5 | COc1cc(C(=O)N2CC[C@]3(c4cccc(F)c4)OCOC3C2)ccc1OCC1CCC1 (stereo partly drawn) [Compound 241] |
| ≤ 2 | COc1cc(C(=O)N2CC[C@]3(c4cccc(Cl)c4)OCOC3C2)ccc1O[C@H](C)C(F)(F)F (stereo partly drawn) [Compound 243] |
| ≤ 2 | COc1cc(C(=O)N2CC[C@]3(c4cccc(Cl)c4)OCOC3C2)ccc1O[C@@H](C)C(F)(F)F (stereo partly drawn) [Compound 244] |
| ≤ 2 | COc1ccnc([C@]23CCN(C(=O)c4ccc(OCCOC(F)(F)F)c(Cl)c4)CC2OCO3)c1 (stereo partly drawn) [Compound 245] |
| ≤ 2 | COc1ccnc([C@]23CCN(C(=O)c4ccc(OCC5CC(F)(F)C5)c(OC)n4)CC2OCO3)c1 (stereo partly drawn) [Compound 246] |
| ≤ 2 | O=C(c1ccc(OCCOC(F)(F)F)c(Cl)c1)N1CC[C@@]2(c3ccccn3)C(C1)C2(F)F (stereo partly drawn) [Compound 247] |
| ≤ 2 | O=C(c1ccc(OCCOC(F)(F)F)c(Cl)c1)N1CC[C@]2(c3cc(C(F)(F)F)ccn3)OCOC2C1 (stereo partly drawn) [Compound 248] |
| ≤ 2 | CCOc1nc(C(=O)N2CC[C@]3(c4cccc(F)c4)OCOC3C2)ccc1OCCOC(F)(F)F (stereo partly drawn) [Compound 249] |
| ≤ 2 | COc1nc(C(=O)N2CC[C@]3(c4cc(C(F)(F)F)ccn4)OCOC3C2)ccc1OCC1CC(F)(F)C1 (stereo partly drawn) [Compound 250] |
| ≤ 2 | COc1cc(C(=O)N2CC[C@]3(c4cc(C(F)(F)F)ccn4)OCOC3C2)ccc1OCCC(F)(F)F (stereo partly drawn) [Compound 251] |
| ≤ 2 | COc1cc(C(=O)N2CC[C@]3(c4cccc(F)c4)OCOC3C2)ccc1OCCC1CC1(F)F (stereo partly drawn) [Compound 252] |
| ≤ 2 | O=C(c1ccc(OCCOC(F)(F)F)c(Cl)c1)N1CC[C@@]2(c3ccccn3)COC2C1 (stereo partly drawn) [Compound 253] |
| ≤ 2 | COc1nc(C(=O)N2CC[C@]3(c4cccc(F)c4)OCOC3C2)ccc1OCC1CC(F)(F)C1(F)F (stereo partly drawn) [Compound 254] |
